For series [1], the system named is HeLaS₃ cells. The series can be described thus: Growth inhibition test on HeLaS₃ cells (Neutral Red staining). The note with it: Homo sapiens, HeLa, 72 hours culture, absorbance 550 nm, read-out: HeLaS₃ IC₅₀. In kind it is cell-based. How it is done:
HeLaS₃ cells suspended in MEM medium containing 10% fetal calf serum and 2 mM glutamine (hereinafter referred to as medium A) to a concentration of 3 × 10⁴ cells/ml were put into wells of a 96-well microtiter plate in an amount of 0.1 ml per well.
After culturing at 37°C overnight in a CO₂-incubator, 0.05 ml of a test sample appropriately diluted with medium A was added to each well.
The cells were further cultured at 37°C for 72 hours in the CO₂-incubator and the culture supernatant was removed. The residue was washed once with phosphate buffered physiological saline (PBS), and 0.1 ml of a medium containing medium A and 0.02% Neutral Red was added to each well, followed by culturing at 37°C for one hour in the CO₂-incubator to stain the cells. After removal of the culture supernatant, the cells were washed once with physiological saline, and the dye was extracted with 0.001N HCl/30% ethanol. Absorbance of the extract at 550 nm was measured with a microplate reader. By comparing the absorbance of the extract of intact cells with those of the cells treated with the test compound at known concentrations, the concentration of the test compound which inhibited growth of the cells by 50% (IC₅₀) was determined.

Series [2] has as its system Sarcoma 180 tumor. Nature of the series: Therapeutic effect against Sarcoma 180 tumor implanted subcutaneously in mice. In kind it is in vivo, ddY-strain mice. The note with it: Dose 0.70 mg/kg, intravenously, one day after implantation; tumor volume seven days after implantation. On the procedure: Five male ddY-strain mice each weighing 18 to 20 g were used for each group as test animals, and 5 × 10⁵ Sarcoma 180 tumor cells were implanted subcutaneously into the animals at the axilla. One day after the implantation, 0.2 ml of physiological saline containing a test compound at the concentration indicated in Table 1 was intravenously administered to each mouse. T/C [T: average tumor volume (mm³) of the group treated with the test compound, C: that of the control group which received an intravenous administration of 0.2 ml of physiological saline] was determined seven days after the implantation.

Series [3] deals with Bacillus subtilis ATCC6633. Nature of the series: Antibacterial activity, agar dilution method. In kind it is cell-based. As to conditions: pH 7.0. How it is done:
(§1) Minimum inhibitory concentrations (MIC) of Compound (I) against various bacteria were determined by the agar dilution method (pH 7.0).
On the technique in general: In agar dilution, organisms are placed on agar that contains the substance at set levels.

The test system of series [4] is Micrococcus luteus ATCC9341. Nature of the series: Antibacterial activity, agar dilution method. It is filed as cell-based. The note with it: pH 7.0. How it is done:
as §1

Series [5] has as its system Staphylococcus aureus 209-P. The series can be described thus: Antibacterial activity, agar dilution method. In kind it is cell-based. The note with it: pH 7.0. On the procedure: as §1
For series [6], the system named is Staphylococcus aureus 6538-P. The series can be described thus: Antibacterial activity, agar dilution method. As to conditions: pH 7.0. In kind it is cell-based. How it is done:
as §1

Series [7] has as its system Staphylococcus epidermidis S1318. The series can be described thus: Antibacterial activity, agar dilution method. In kind it is cell-based. The note with it: pH 7.0. On the procedure: as §1
The nature of series [8]: Stability in solution for preparing a freeze-dried preparation (HPLC). The note with it: for Residual Rate: 1 mg/ml in water with 50 mg lactose and 0.5 mg citric acid per ml, 25°C. In kind it is physicochemical. On the procedure:
In 1 ml of distilled water was dissolved 50 mg of lactose and 0.5 mg of citric acid. Compound (I) or Compound (III) was dissolved in the solution to a concentration of 1 mg/ml. The test solution was poured in a vial, and kept in a thermostat at 25°C. The concentration of Compound (I) or Compound (III) in the solution was determined by High Performance Liquid Chromatography (HPLC) with the elapse of time. The concentration of each test compound in the test solution just after the dissolution was defined as 100 %. The residual rate (%) was calculated according to the following equation. [formula]

≈ marks a conversion by molar mass, not a printed value.

What is called MIC is the lowest concentration found to suppress growth. Low values mean inhibition by little substance, high ones a need for much substance. Turning to `COC(=O)c1c(C)[nH]c2c(OC(=O)N3CCN(C)CC3)cc3c(c12)C(CBr)CN3C(=O)c1cc2cc(OC)c(OC)c(OC)c2[nH]1` (centres unmarked) [Compound (I)], in series [1], the IC50 came to 31 nM. For the same molecule, the “Sarcoma 180 T/C” value in series [2] turned out to be 0.095. Moreover, the MIC was 6.25 µg/mL (≈ 8.95 µM) in series [3]; 25 µg/mL (≈ 35.8 µM) in series [4]; 6.25 µg/mL (≈ 8.95 µM) in series [5]; 6.25 µg/mL (≈ 8.95 µM) in series [6]; 6.25 µg/mL (≈ 8.95 µM) in series [7]. For the same molecule, the results for the “Residual Rate” value in series [8] (Time 0 hr (defined as 100 %)), in series [8] (Time 3 hr) and in series [8] (Time 6 hr) were 100%, 99% and 98%, respectively. The “stability in solution (in words)” value in series [8] (compared with Compound (III), results of Table 3) was “improved stability in solution”.

Source of the values: patent EP0537575A1, “Hydrobromide of DC-89 derivative having antitumor activity” (KYOWA HAKKO KOGYO CO., LTD., priority 1991, dated 1993).
